Source: patent publication US20240108637A1, “EPITE[…] AND/OR A STEROID SULFATASE INHIBITOR FOR USE IN TREATING OR IMPROVING AGE RELATED COGNITIVE IMPAIRMENT” (U[…] DE OLAVIDE, priority 2020, published 2024)
Entries after “also recorded” stand apart in the source; their conditions may differ.

How the values were obtained:
C. elegans = test: Lifespan assays in C. elegans; format: in vivo, Caenorhabditis elegans
Experimental: F2 L4 animals were shifted to 25° C. (t=0). ES treatment started at L4 stage, control and treated plates were prepared fresh and animals transferred each three days until death. Animals lost or dead by non-physiological causes were censured. Survival curves were generated using the product-limit method of Kaplan and Meier. The log-rank (Mantel-Cox) test was used to evaluate differences in survival and […] lower than 0.05 were considered significant.

[1] = system: NL5901 strain expressing α-synuclein in muscle cells; test: Parkinson's disease model: mobility of NL5901 strain; format: in vivo, C. elegans; settings: 1 μg/ml
Excerpt: We have studied the anatomical location of sul-2 expression from an extrachromosomal array and in single-copy insertion transgenic strains. […] There is no detectable expression in the germline in any transgenic strains (FIG. 2n and FIG. 10, 11a-b). ASE neurons are responsible for the attractive response of Na+ and Cl−, among others. Defects in odour sensing affect longevity. Therefore, we tested the ability of sul-2 mutants to respond to Cl− or Na+ and found no differences compared to wild type animals (FIG. 11c-d). Furthermore, sul-2 mutation increases the longevity of daf-10(m79), a long-lived mutant defective in sensory cilia formation25 (FIG. 11e). […] Reduction of sul-2 improves aging associated diseases in C. elegans Aging is considered the main risk factor for the onset of neurodegenerative disorders like Parkinson, Huntington, or Alzheimer's diseases. These disorders are caused by the progressive decline of proteostasis, which results in protein aggregation that compromises cellular functions and finally causes cell death. Germline-deficient C. elegans delay the symptoms derived from the proteotoxicity of ectopically expressed human β-amyloid (βA). We tested if sul-2 mutations or STX64 treatment improves the symptoms of C. elegans models for neurodegenerative diseases.

[2] = system: GMC101 strain expressing human β-amyloid in muscle; test: Alzheimer's disease model: thermodependent paralysis of GMC101 strain; format: in vivo, C. elegans; settings: 1 μg/ml, FIG. 3h, FIG. 4b
Excerpt: (§1) In this model, GFP-labelled dopaminergic neurons die due to α-synuclein toxicity. […] We also tested two different strains of Alzheimer's disease (AD) in worms, where immobility is caused by expression of βA protein in muscle cells.

[3] = system: CL2006 strain expressing human β-amyloid in muscle; test: Alzheimer's disease model: paralysis with age of CL2006 strain; format: in vivo, C. elegans; settings: Log-rank (Mantel-Cox) test p=0.007, FIG. 12g
Excerpt: as §1

[4] = system: wild type mice injected with β-amyloid oligomers in the hippocampus; test: Passive avoidance test after intrahippocampal βA oligomers infusion (acute AD model); format: in vivo
Excerpt: (§2) As STX64 ameliorated neurodegeneration in C. elegans models, we tested the effect of this drug on cognitive alterations provoked by intrahippocampal βA oligomers infusion, an acute AD mammalian model (FIG. 3i). […] To evaluate the effect of STX64 oral treatment on amyloid pathology in a chronic AD mice model, we assessed the effect of 3-4 weeks of STX64 oral treatment on amyloid deposition in the neocortex (the cerebral cortex and the hippocampus) of >15-month-old APP-PS1 mice (FIG. 4k). […] We wondered if this histological improvement correlated with amelioration of cognitive behavioural deficit. For that, we compared cognition capacities in APP-PS1 mice older than 15-month-old treated with vehicle or STX64 for 3-4 weeks.
(§3) The first, object recognition, after training with identical objects, tests the ability to identify different objects exposed together with a familiar one. When this happens, the object discrimination index is positive and higher than 0.1. […] For this purpose, during training, the entry latency to the preferred site is established and the aversive stimulus is administered.

APP-PS1 mice [5] = test: β-amyloid deposition in frontal cortex and hippocampus (chronic AD model); format: in vivo; settings: 3-4 weeks oral
Excerpt: as §2

APP-PS1 mice [6] = test: Passive avoidance test in APP-PS1 mice; format: in vivo; settings: APP-PS1 mice older than 15-month-old; 3-4 weeks oral
Excerpt: as §2, §3

aged mice [7] = test: Cognition of aged mice under STX64 treatment (FIG. 16-19, headline); format: in vivo
aged mice [8] = test: Object recognition test in aged mice; format: in vivo
Experimental: as §3

aged mice [9] = test: Passive avoidance test in aged mice (STM and LTM); format: in vivo
Experimental: as §3
During short- and long-term memory tests (STM and LTM) if the mouse associated the preferred place to the aversive stimulus, the input latency increases with respect to training.

16-month-old mice [10] = test: Open Field test; format: in vivo; settings: FIG. 20; for habituation ability: aged animals, Open Field 15 minutes
Experimental: (§4) The “Open Field” is a test where the mouse must explore an unknown space for 15 minutes. In this test, both mobility and habituation (cognitive parameter that measures the individual's ability to recognize the environment) can be studied. On the other hand, the “Y maze” test is a test where the mouse explores the maze for 6 minutes. This test evaluates the distance traveled as a measure of mobility and the ability to visit triplets of arms without repeating any of them as a sign of immediate memory.

16-month-old mice [11] = test: Y maze test; format: in vivo; settings: aged animals, Y maze 6 minutes, FIG. 20
Experimental: as §4

[12] = aged mice, vs vehicle-treated, FIG. 21, listed as STX

Question: With `NS(=O)(=O)Oc1ccc2c3c(c(=O)oc2c1)CCCCC3` [STX64] as the molecule, how does the “dependence of the increase of longevity on daf-36” value (C. elegans; daf-36 mutant, 1 μg/ml, FIG. 2m) read?
Answer: The value was “daf-36 is necessary for the increase of longevity; also recorded: DAF-36 is required for the longevity”.

Question: And the lifespan (C. elegans; sul-2 (gk187) deletion background, 1 μg/ml, UV-killed E. coli, FIG. 1D)?
Answer: The lifespan was “does not further increase the longevity”.

Question: What about the lifespan (C. elegans; wild type animals, 1 μg/ml, UV-killed E. coli, FIG. 1D) of the same molecule?
Answer: The lifespan was “increases lifespan”.

Question: What about the longevity (C. elegans; wild type animals, text statement (FIG. 1d, FIG. 7a-c)) of the same molecule?
Answer: The longevity was “increase in longevity; also recorded: extends lifespan”.

Question: And the lifespan (C. elegans; wild type, non-UV E. coli, FIG. 7a)?
Answer: Its lifespan is “increases lifespan of wild type”.

Question: And the mobility with age [1]?
Answer: Its mobility with age is “reduce mobility with age at a slower rate; also recorded: significantly improved mobility; also recorded: protective effect”.

Question: What about the paralysis phenotype [2] of the same molecule?
Answer: Its paralysis phenotype is “the paralysis phenotype is ameliorated; also recorded: delayed paralysis”.

Question: And the paralysis with age [3]?
Answer: Its paralysis with age is “delayed paralysis; also recorded: ameliorated”.

Question: And the “cognitive deficiencies, passive avoidance test” value (from here on “cognitive deficiencies”) ([4]; local (intrahippocampal) administration)?
Answer: Its value is “reverted the cognitive deficiencies”.

Question: And the “cognitive deficiencies” value ([4]; systemic (oral) administration)?
Answer: Its value is “reverted the cognitive deficiencies”.

Question: And the “βA deposition compared with un-treated APP-PS1 mice of 10-12 months of age” value (APP-PS1 mice [5]; APP-PS1 mice older than 15 months)?
Answer: Its value is “reduces βA deposition”.

Question: And the βA immunoreactive area (APP-PS1 mice [5]; frontal cortex and hippocampus, >15-month-old APP-PS1 mice)?
Answer: Its βA immunoreactive area is “reduced in both tissues”.

Question: And the βA plaque density (APP-PS1 mice [5]; frontal cortex and hippocampus, >15-month-old APP-PS1 mice, 0.005 mg/ml in drink water)?
Answer: The βA plaque density was “significant reduction”.

Question: What about the βA plaque size (APP-PS1 mice [5]; frontal cortex, >15-month-old APP-PS1 mice, 0.005 mg/ml in drink water) of the same molecule?
Answer: Its βA plaque size is “significant reduction”.

Question: And the “cognitive deficiencies” value (APP-PS1 mice [6])?
Answer: Its value is “completely reverted cognitive deficiencies”.

Question: And the cognition (aged mice [7]; 1-month treatment in 18 months old mice, 19 months when assayed, FIG. 18)?
Answer: Its cognition is “improves cognition”.

Question: What about the cognition (aged mice [7]; 3-month treatment in 18 months old mice, 21 months when assayed, FIG. 19) of the same molecule?
Answer: Its cognition is “improves cognition”.

Question: What about the cognition (aged mice [7]; 3 months treatment in 15 months old mice, FIG. 16) of the same molecule?
Answer: The cognition was “improves cognition”.

Question: And the cognition (aged mice [7]; 6 months treatment in 15 months old mice, 21 months when assayed, FIG. 17)?
Answer: Its cognition is “improves cognition”.

Question: And the object recognition (aged mice [8]; 3-month treatment in 18 months old mice, FIG. 19B)?
Answer: The object recognition was “is improved”.

Question: What about the object recognition (aged mice [8]; 3 months treatment in 15 months old mice, FIG. 16B) of the same molecule?
Answer: The object recognition was “is improved”.

Question: And the object recognition (aged mice [8]; 6 months treatment in 15 months old mice, FIG. 17B)?
Answer: The object recognition was “is improved”.

Question: And the “learning and memory, object recognition test” value (aged mice [8]; [12])?
Answer: Its value is “showed significantly both learning (STM) and ability to store information (memory); also recorded: significant improvement in both learning (STM) and ability to store information (memory)”.

Question: What about the “short term and long-term memory in passive avoidance test” value (aged mice [9]; 1-month treatment in 18 months old mice, FIG. 18B) of the same molecule?
Answer: The value was “significant improvement”.

Question: And the “learning (STM) and memory (LTM), passive avoidance test” value (aged mice [9]; [12])?
Answer: The value was “showed significantly both learning (STM) and ability to store information (memory); also recorded: significant improvement in both learning (STM) and ability to store information (memory)”.

Question: What about the “motor ability (mobility)” value (16-month-old mice [10]; 16-month-old mice, Open Field mobility and Y maze distance traveled) of the same molecule?
Answer: Its value is “tend to improve”.

Question: What about the habituation ability (16-month-old mice [10]) of the same molecule?
Answer: Its habituation ability is “tend to improve”.

Question: And the habituation ability (16-month-old mice [10]; listed as STX)?
Answer: The habituation ability was “are improved”.

Question: What about the immediate memory (16-month-old mice [11]) of the same molecule?
Answer: The immediate memory was “tend to improve”.

Question: What about the immediate memory (16-month-old mice [11]; listed as STX) of the same molecule?
Answer: Its immediate memory is “are improved”.
